biological target: T1, Interstitial collagenase (Homo sapiens, UniProt P03956); experiment: Inhibition of human matrix metalloprotease-1
T1 sequence (P03956 whole entry): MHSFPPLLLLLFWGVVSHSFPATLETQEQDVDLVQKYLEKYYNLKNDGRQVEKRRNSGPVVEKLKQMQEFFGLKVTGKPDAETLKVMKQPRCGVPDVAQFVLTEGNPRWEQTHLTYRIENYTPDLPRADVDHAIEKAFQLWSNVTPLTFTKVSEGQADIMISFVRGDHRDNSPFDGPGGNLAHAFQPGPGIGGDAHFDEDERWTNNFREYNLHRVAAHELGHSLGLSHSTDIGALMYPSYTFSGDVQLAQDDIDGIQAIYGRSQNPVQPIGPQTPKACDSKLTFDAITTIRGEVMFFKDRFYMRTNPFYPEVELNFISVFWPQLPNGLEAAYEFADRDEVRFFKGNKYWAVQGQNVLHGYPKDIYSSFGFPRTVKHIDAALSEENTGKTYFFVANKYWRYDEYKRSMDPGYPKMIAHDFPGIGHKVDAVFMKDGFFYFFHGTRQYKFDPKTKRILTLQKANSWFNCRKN

| Ki [nM] | IC50 [nM] | SMILES |
| --- | --- | --- |
| 224 |  | O=C(NO)C1CCCCN1S(=O)(=O)N1CCC(Oc2ccc(-n3ccnc3)cc2)CC1 (stereo not given) |
|  | 920 | CCCCOc1ccc(S(=O)(=O)N2CC(N3CCOCC3)CC2C(=O)NO)cc1 (stereo not given) |
|  | 1.3 | CNC(=O)C(NC(=O)C(CC(C)C)C(NS(=O)(=O)c1cccc2cccc(=O)n12)C(=O)NO)C(C)(C)C (stereo not given) |
| 3 |  | O=C(CN(Cc1ccc([N+](=O)[O-])cc1)S(=O)(=O)c1ccc(C(F)(F)F)cc1)NO |
|  | 121 | CC#CCOc1ccc(S(=O)(=O)N2CCc3ccccc3C2C(=O)NO)cc1 (stereo not given) |
| 423 |  | O=C(NO)C1CCCCN1S(=O)(=O)N1CCN(c2ccccn2)CC1 (stereo not given) |
|  | 360 | CC(C)C(NS(=O)(=O)N1CCC(Oc2ccc(Cl)cn2)CC1)C(=O)NO (stereo not given) |
|  | 40 | CCOC(=O)[C@H](C)NC(=O)[C@H](CC(C)C)NC(=O)[C@@H](CC(=O)NO)CC(C)C |
| 70 |  | O=C(CC1(S(=O)(=O)c2ccc(Oc3ccc(Cl)cc3)cc2)CCOCC1)NO |
|  | 10 | Cc1ccc(COc2ccc(S(=O)(=O)N3CCCC(C)(O)C3C(=O)NO)cc2)c(C)c1 (stereo not given) |
